{"source": "paper PMC546160", "about": "(Nucleic Acids Research, 2005)", "key": {"[1]": {"molecular_target": "T1, HhaI methyltransferase (M.HhaI) (Haemophilus parahaemolyticus, UniProt P05102)", "T1 sequence (P05102 1-327)": "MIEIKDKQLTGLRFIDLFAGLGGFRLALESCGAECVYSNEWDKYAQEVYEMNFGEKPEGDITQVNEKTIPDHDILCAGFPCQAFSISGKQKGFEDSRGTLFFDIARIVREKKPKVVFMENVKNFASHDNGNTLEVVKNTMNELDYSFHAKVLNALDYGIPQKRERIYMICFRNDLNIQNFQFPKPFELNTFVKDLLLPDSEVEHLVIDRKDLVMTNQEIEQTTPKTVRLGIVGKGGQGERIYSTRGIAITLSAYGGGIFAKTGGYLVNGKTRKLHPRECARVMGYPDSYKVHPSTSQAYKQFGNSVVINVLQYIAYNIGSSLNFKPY", "experiment": "biochemical"}, "[2]": {"molecular_target": "HhaI methyltransferase (M.HhaI) (Haemophilus parahaemolyticus, UniProt P05102, W41I)", "experiment": "biochemical"}}, "data": [{"smiles": "C[S+](CC[C@H](N)C(=O)O)C[C@H]1O[C@@H](n2cnc3c(N)ncnc32)[C@H](O)[C@@H]1O", "note": "(some centres unmarked) [AdoMet]", "values": [{"measurement": "Kd", "setting": "[1]", "value": 4.4, "unit": "µM"}, {"measurement": "Kd", "setting": "[2]", "value": 14, "unit": "µM"}]}]}
